Common to all, as to assay type: cell-based
For one test, the target named is T1, human TLR7 (Homo sapiens, UniProt Q9NYK1).
T1 construct: host or cells: HEK-Blue cells
T1 sequence (Q9NYK1 27-1049): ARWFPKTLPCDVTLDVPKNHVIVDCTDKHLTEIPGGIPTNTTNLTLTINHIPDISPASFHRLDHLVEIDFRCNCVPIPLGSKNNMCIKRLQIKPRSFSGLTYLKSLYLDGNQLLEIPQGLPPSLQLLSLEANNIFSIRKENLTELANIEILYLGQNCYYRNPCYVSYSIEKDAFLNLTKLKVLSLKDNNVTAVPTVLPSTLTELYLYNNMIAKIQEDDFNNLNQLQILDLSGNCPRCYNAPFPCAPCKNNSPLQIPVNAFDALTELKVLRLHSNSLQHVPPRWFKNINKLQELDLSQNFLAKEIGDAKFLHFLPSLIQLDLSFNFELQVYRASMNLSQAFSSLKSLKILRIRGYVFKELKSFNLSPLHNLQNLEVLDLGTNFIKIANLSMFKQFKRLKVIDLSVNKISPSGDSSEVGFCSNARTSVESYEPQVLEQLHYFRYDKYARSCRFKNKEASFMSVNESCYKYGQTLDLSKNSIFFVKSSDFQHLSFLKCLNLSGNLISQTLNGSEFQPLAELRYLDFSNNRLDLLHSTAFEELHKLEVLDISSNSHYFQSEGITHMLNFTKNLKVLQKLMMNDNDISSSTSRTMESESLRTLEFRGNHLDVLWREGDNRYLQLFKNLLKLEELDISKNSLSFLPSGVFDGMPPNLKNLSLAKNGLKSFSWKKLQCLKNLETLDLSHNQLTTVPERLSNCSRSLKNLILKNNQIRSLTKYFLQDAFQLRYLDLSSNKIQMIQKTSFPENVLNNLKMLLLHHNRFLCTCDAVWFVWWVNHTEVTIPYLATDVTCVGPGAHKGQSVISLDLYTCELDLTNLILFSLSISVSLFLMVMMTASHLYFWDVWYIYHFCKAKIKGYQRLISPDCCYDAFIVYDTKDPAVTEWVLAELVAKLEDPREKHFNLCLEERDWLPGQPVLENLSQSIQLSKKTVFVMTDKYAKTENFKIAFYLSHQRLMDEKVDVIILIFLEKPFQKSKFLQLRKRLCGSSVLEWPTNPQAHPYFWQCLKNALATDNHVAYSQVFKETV
Briefly: TLR7 inhibition reporter assay (HEK-Blue SEAP). The note with it: HEK-Blue cells overexpressing human TLR7, stimulated with gardiquimod 7.5 μM, 22 hour incubation. On the procedure:
(§1) TLR7/8/9 Inhibition Reporter Assays
(§2) HEK-Blue™-cells (Invivogen) overexpressing human TLR7, TLR8 or TLR9 receptors were used for screening inhibitors of these receptors using an inducible SEAP (secreted embryonic alkaline phosphatase) reporter gene under the control of the IFN-β minimal promoter fused to five NF-κB and AP-1-binding sites. Briefly, cells are seeded into Greiner 384 well plates (15000 cells per well for TLR7, 20.000 for TLR8 and 25,000 for TLR9) and then treated with test compounds in DMSO to yield a final dose response concentration range of 0.05 nM-50 μM. After a 30 minute compound pre-treatment at room temperature, the cells are then stimulated with a TLR7 ligand (gardiquimod at a final concentration of 7.5 μM), TLR8 ligand (R848 at a final concentration of 15.9 μM) or TLR9 ligand (ODN2006 at a final concentration of 5 nM) to activate NF-κB and AP-1 which induce the production of SEAP. After a 22 hour incubation at 37° C., 5% CO2, SEAP levels are determined with the addition of HEK-Blue™ Detection reagent (Invivogen), a cell culture medium that allows for detection of SEAP, according to manufacturer's specifications. The percent inhibition is determined as the % reduction in the HEK-Blue signal present in wells treated with agonist plus DMSO alone compared to wells treated with a known inhibitor.
On the technique in general: Reporter assays use an easily measured gene product as a stand-in for the process of interest.

Another test concerns the target T2, human TLR8 (Homo sapiens, UniProt Q9NR97).
T2 construct: host or cells: HEK-Blue cells
T2 sequence (Q9NR97 27-1041): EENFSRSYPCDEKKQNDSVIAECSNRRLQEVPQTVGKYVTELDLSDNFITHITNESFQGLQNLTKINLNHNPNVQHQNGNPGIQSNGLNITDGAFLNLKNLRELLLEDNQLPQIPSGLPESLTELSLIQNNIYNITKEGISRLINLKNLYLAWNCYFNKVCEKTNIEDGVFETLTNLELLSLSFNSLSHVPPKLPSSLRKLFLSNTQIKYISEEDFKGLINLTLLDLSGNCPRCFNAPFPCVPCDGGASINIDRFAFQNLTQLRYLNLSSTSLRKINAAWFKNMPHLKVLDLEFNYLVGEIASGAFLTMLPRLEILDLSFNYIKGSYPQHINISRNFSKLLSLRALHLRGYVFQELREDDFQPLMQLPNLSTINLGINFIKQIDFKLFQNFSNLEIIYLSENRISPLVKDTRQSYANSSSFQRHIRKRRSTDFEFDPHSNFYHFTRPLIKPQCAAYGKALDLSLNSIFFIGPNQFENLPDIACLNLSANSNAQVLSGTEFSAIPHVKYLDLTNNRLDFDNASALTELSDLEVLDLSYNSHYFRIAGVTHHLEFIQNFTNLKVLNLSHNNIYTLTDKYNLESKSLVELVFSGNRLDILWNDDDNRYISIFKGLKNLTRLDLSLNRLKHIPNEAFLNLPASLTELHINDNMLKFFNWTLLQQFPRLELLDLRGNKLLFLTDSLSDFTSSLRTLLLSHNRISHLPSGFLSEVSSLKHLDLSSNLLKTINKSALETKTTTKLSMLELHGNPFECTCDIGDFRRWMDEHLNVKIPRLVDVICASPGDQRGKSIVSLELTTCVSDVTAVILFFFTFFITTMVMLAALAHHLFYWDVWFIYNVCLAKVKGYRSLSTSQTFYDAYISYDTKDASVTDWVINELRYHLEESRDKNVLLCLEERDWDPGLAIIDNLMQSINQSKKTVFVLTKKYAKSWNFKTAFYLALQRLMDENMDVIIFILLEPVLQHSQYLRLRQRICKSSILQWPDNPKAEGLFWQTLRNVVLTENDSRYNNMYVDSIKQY
Briefly: TLR8 inhibition reporter assay (HEK-Blue SEAP). The note with it: HEK-Blue cells overexpressing human TLR8, stimulated with R848 15.9 μM, 22 hour incubation. As for the experimental part:
as §1, §2

A further test deals with T3, human TLR9 (Homo sapiens, UniProt Q9NR96).
T3 construct: host or cells: HEK-Blue cells
T3 sequence (Q9NR96 26-1032): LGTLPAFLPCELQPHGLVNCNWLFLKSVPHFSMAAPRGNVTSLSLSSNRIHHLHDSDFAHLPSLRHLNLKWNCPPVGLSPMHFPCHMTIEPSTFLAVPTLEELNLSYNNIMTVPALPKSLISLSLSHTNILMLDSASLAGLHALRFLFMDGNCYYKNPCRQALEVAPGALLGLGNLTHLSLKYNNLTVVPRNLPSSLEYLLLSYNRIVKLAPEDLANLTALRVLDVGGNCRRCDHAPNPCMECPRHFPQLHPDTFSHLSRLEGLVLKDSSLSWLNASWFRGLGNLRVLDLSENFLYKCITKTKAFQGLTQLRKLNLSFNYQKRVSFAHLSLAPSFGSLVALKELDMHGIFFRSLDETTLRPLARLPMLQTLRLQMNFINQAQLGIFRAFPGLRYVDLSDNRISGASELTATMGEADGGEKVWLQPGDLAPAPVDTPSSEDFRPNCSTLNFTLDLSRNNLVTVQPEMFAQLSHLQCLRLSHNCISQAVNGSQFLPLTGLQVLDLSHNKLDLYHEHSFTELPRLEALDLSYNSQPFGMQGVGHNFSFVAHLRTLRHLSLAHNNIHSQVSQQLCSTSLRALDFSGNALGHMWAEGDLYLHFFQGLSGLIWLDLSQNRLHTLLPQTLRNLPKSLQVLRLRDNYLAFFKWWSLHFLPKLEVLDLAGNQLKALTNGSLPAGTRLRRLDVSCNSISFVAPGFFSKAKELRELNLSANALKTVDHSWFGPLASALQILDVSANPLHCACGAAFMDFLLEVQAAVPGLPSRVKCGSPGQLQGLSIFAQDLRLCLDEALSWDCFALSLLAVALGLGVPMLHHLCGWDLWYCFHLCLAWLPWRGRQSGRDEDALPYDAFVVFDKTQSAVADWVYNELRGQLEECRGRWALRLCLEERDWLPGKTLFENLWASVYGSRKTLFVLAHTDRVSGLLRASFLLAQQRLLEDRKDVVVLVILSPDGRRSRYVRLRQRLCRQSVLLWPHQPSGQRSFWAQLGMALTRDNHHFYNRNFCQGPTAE
Briefly: TLR9 inhibition reporter assay (HEK-Blue SEAP). The following applies: HEK-Blue cells overexpressing human TLR9, stimulated with ODN2006 5 nM, 22 hour incubation. As for the experimental part:
as §1, §2

Here are results for 13 molecules from patent US12030878B2 (BRISTOL-MYERS SQUIBB COMPANY, priority 2017, dated 2024).

As to `Cc1cc(-c2[nH]c3ccc(OC4CCNCC4)cc3c2C(C)C)cc(C)n1` [Example 1, 2-(2,6-dimethylpyridin-4-yl)-3-isopropyl-5-(piperidin-4-yloxy)-1H-indole], the IC50 at human TLR7 came to 2.9 nM; on human TLR8 it was 2.1 nM; on human TLR9, 241 nM.
As to `Cc1cc(-c2[nH]c3ccc(OCCN4CCCC4)cc3c2C(C)C)cn2ncnc12` [Example 2, 6-(3-isopropyl-5-(2-(pyrrolidin-1-yl)ethoxy)-1H-indol-2-yl)-8-methyl-[1,2,4]triazolo[1,5-a]pyridine], the half-inhibitory concentration (IC50) at human TLR7 worked out at 1 nM; against human TLR8, 1.6 nM; at human TLR9, 2140 nM.
Taken in the same sequence, the figures for `Cc1cc(-c2[nH]c3ccc(OCCN4CCC(F)(F)CC4)cc3c2C(C)C)cn2ncnc12` [Example 3, 6-(5-(2-(4,4-difluoropiperidin-1-yl)ethoxy)-3-isopropyl-1H-indol-2-yl)-8-methyl-[1,2,4]triazolo[1,5-a]pyridine] were 26.4 nM, 11 nM and 18700 nM.
For the molecule `Cc1cc(-c2[nH]c3ccc(OCCN4CCCC(F)C4)cc3c2C(C)C)cn2ncnc12` (centres unmarked) [Example 4, 6-(5-(2-(3-fluoropiperidin-1-yl)ethoxy)-3-isopropyl-1H-indol-2-yl)-8-methyl-[1,2,4]triazolo[1,5-a]pyridine], the IC50 is above 3130 nM against human TLR7, 15.4 nM against human TLR8 and above 50000 nM on human TLR9.
Consider `Cc1cc(-c2[nH]c3ccc(OCCN4CCOCC4)cc3c2C(C)C)cn2ncnc12` [Example 5, 4-(2-((3-isopropyl-2-(8-methyl-[1,2,4]triazolo[1,5-a]pyridin-6-yl)-1H-indol-5-yl)oxy)ethyl)morpholine], for which the figures for the IC50 on human TLR7, against human TLR8 and against human TLR9 were 8.1 nM, 3.3 nM and 37300 nM, respectively.
Take `Cc1cc(-c2[nH]c3ccc(OCC4CCNCC4)cc3c2C(C)C)cc(C)n1` [Example 6, 2-(2,6-dimethylpyridin-4-yl)-3-isopropyl-5-(piperidin-4-ylmethoxy)-1H-indole]: the IC50 stood at 1.8 nM at human TLR7, 4.4 nM at human TLR8 and 406 nM against human TLR9.
Consider `Cc1cc(-c2[nH]c3ccc(OCC4CCNCC4)cc3c2C(C)C)cn(C)c1=O` [Example 7, 5-(3-isopropyl-5-(piperidin-4-ylmethoxy)-1H-indol-2-yl)-1,3-dimethylpyridin-2(1H)-one], for which the IC50 was 2.1 nM against human TLR7, 2.6 nM against human TLR8 and 797 nM on human TLR9.
Taken in the same sequence, the figures for `Cc1cc(-c2[nH]c3ccc(O[C@H]4CCCNC4)cc3c2C(C)C)cn(C)c1=O` [Example 8, (S)-5-(3-isopropyl-5-(piperidin-3-yloxy)-1H-indol-2-yl)-1,3-dimethylpyridin-2(1H)-one] were 6.6 nM, 13.9 nM and 3520 nM.
With `COc1cc(-c2[nH]c3ccc(OC4CCN(CC(=O)N(C)C)CC4)cc3c2C(C)C)cn2ncnc12` [Example 93, 2-(4-((3-isopropyl-2-(8-methoxy-[1,2,4]triazolo[1,5-a]pyridin-6-yl)-1H-indol-5-yl)oxy)piperidin-1-yl)-N,N-dimethylacetamide], the half-maximal inhibitory concentration (IC50) against human TLR8 came to 2.6 nM; at human TLR9, 1810 nM.
`CNC(=O)CN1CCC(Oc2ccc3[nH]c(-c4cn(C)c(=O)c(C)c4C)c(C(C)C)c3c2)CC1` [Example 115, 2-(4-((3-isopropyl-2-(1,4,5-trimethyl-6-oxo-1,6-dihydropyridin-3-yl)-1H-indol-5-yl)oxy)piperidin-1-yl)-N-methylacetamide]: the results for the half-maximal inhibitory concentration (IC50) against human TLR7 and at human TLR8 were 39.7 nM and 8.6 nM, respectively.
Consider `Cc1cc(-c2[nH]c3ccc(OCc4c[nH]cn4)cc3c2C(C)C)ccn1` [Example 176, 5-((1H-imidazol-4-yl)methoxy)-3-isopropyl-2-(2-methylpyridin-4-yl)-1H-indole], for which, on human TLR9, the half-inhibitory concentration (IC50) was 13600 nM.
For the molecule `Cc1cc(-c2[nH]c3ccc(OCc4c[nH]cn4)cc3c2C(C)C)ccn1` [Example 178, 5-((1H-imidazol-4-yl)methoxy)-3-isopropyl-2-(2-methylpyridin-4-yl)-1H-indole], the IC50 at human TLR9 is above 50000 nM.
`Cc1cc(-c2[nH]c3ccc(OC4CCN(CCC(F)(F)F)CC4)cc3c2C(C)C)ccn1` [Example 187, 3-isopropyl-2-(2-methylpyridin-4-yl)-5-((1-(3,3,3-trifluoropropyl)piperidin-4-yl)oxy)-1H-indole]: the 50% inhibitory concentration (IC50) against human TLR7 was determined as 257 nM; on human TLR8, 3.9 nM.

The term IC50 denotes the concentration at which inhibition is half-maximal. Higher therefore signals weaker potency.
